What was measured:
[1] = system: MOLM-13; assay: Cytotoxic activity of Fab-PE24 constructs, CellTiter-Glo; assay type: cell-based, human; details: 4 days at 37° C.
Protocol: (§1) Treatment ranges from 50 μg/ml to 8 μg/ml in triplicate. Cycloheximide was used as positive control.

[2] = system: Karpas-299; assay: as above; assay type: cell-based, human; details: 4 days at 37° C.
Protocol: as §1

[3] = system: CMK; assay: as above; assay type: cell-based, human; details: 4 days at 37° C.
Protocol: as §1

[4] = system: TF-1; assay: as above; assay type: cell-based, human; details: 4 days at 37° C.
Protocol: as §1

[5] = system: RPMI-8226; assay: as above; assay type: cell-based, human; details: 4 days at 37° C.
Protocol: as §1

[6] = system: primary CD34+ AML cells; assay: Cytotoxic activity of Fab-PE24 constructs on primary AML cells from relapsed/refractory patients; assay type: cell-based, human; details: 3 days at 37° C.
From the text: CD34+ cells from peripheral blood of relapsed/refractory patients were obtained from AllCells, LLC, Alameda, Calif.
Cycloheximide was used as positive control.

[7] = system: Pfeiffer cells; assay: Cytotoxic activity of sortase coupled Fab-PE24 constructs, CellTiter-Glo; assay type: cell-based, human
Protocol: as §1

[8] = system: RPMI-8226 cells; assay: as above; assay type: cell-based, human
Protocol: as §1

[9] = system: Pfeiffer cells; assay: Cytotoxic activity, human IgG1 format with anti-human Fc Fab-PE24, CellTiter-Glo; assay type: cell-based; details: full length human IgG1 format + human Fcγ specific Fab-PE 24 (10 μg/ml), 5 days at 37° C.
From the text: (§2) Rel. Inhibition [%]=(1−(Esample−Enegative control)/(Epositive control−Enegative control))*100

[10] = system: RPMI-8226 cells; assay: as above; assay type: cell-based; details: full length human IgG1 format + human Fcγ specific Fab-PE 24 (10 μg/ml), 5 days at 37° C.
From the text: as §2

[11] = system: Pfeiffer cells; assay: Cytotoxic activity of Fab-PE24 construct vs total IgG-Amatoxin conjugate, CellTiter-Glo; assay type: cell-based, human
Protocol: as §1

[12] = system: recTIM-3 CHO cells; assay: Cytotoxic activity, sandwich format with anti-mouse Fc Fab-PE24, CellTiter-Glo; assay type: cell-based; details: Cricetulus griseus, 72 h, full length mouse Fcγ versions + mouse Fcγ specific Fab-PE 24 (10 μg/ml), 3 days at 37° C.
From the text: as §2

[13] = target: RNA-polymerase II (Homo sapiens, UniProt P24928+P30876); details: read-out: KD of the complex between amanitin and RNA-polymerase II; cited from earlier work

Row | Molecule | MOLM-13 Max. killing [1] | Karpas-299 Max. killing [2] | CMK Max. killing [3] | TF-1 Max. killing [4] | RPMI-8226 Max. killing [5] | D1; AML CD34+ PB0136 cells Max. killing [6] | D2; AML CD34+ PB0142 cells Max. killing [6] | D3; AML CD34+ PB0135 cells Max. killing [6] | D4; AML CD34+ PB0193 cells Max. killing [6] | Pfeiffer cells Max. killing [7] | RPMI-8226 cells Max. killing [8] | Pfeiffer cells Max. killing [9] | RPMI-8226 cells Max. killing [10] | Pfeiffer cells Max. killing [11] | IC50 [12] | Kd [13]
1 | C[C@@H]1C[C@@H]([C@H](O)CC2CC(=O)NC(=O)C2)C(=O)[C@@H](C)C1 [Cycloheximide, reference compound] | 100% | 100% | 100% | 100% | 100% | 100 [%] | 100 [%] | 100 [%] | 100 [%] | 100 [%] | 100 [%] | 100 [%] | 100 [%] | 100 [%] | 135 nM | –
2 | amanitin | – | – | – | – | – | – | – | – | – | – | – | – | – | – | – | 3 nM

From patent US20160257749A1, “ANTI-TIM3 ANTIBODIES AND METHODS OF USE” (Hoffmann-La Roche, Inc., priority 2014, published 2016)
